Data: US20130136719A1, “COMPOUNDS AND METHODS FOR THE TREATMENT OR PREVENTION OF FLAVIVIRUS INFECTIONS” (VERTEX PHARMACEUTICALS INCORPORATED, priority 2009, published 2013)
Read-outs that look alike come from different tables or passages of the source.

Columns and labels:
[1] = system: HCV replicon (genotype 1b) in Huh7 cell line ET; test: microbe, parasite or virus in culture; format: cell-based, HCV genotype 1b; conditions: read-out: HCV-Replicon-Luci-Et-1b_IC50
[2] = molecular target: HCV RNA-dependent RNA polymerase (NS5B protein) (Hepatitis C virus genotype 1b, UniProt P26663); test: biochemical; set-up: species or system HCV-Bk strain
Chain of HCV RNA-dependent RNA polymerase (NS5B protein) (P26663 2420-2989 limits assumed): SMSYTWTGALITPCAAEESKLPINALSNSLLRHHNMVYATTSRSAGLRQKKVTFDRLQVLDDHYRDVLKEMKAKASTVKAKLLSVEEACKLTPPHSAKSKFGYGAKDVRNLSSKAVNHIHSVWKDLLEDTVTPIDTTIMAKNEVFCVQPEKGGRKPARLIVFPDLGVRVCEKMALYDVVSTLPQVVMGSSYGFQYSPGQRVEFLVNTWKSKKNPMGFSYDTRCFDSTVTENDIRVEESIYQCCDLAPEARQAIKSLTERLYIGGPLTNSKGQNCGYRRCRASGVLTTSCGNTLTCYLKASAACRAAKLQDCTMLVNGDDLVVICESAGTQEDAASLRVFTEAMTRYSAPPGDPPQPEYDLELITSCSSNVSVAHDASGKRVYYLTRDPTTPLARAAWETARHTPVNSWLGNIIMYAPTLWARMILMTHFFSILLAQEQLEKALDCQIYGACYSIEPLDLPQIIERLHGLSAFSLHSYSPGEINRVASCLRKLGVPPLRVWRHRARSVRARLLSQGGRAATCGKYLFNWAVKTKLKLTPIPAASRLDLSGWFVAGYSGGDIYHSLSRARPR

[3] = [3H]Thymidine incorporation assay (CC50); conditions: human
[4] = system: HCV sub-genomic replicon of genotype 1a in cell line W11.8; test: microbe, parasite or virus in culture; format: cell-based, HCV genotype 1a; conditions: Hepatitis C virus, W11.8, 96 h, read-out: HCV-Replicon-ELISA-1a IC50

SMILES	IC50 [1]	IC50 ([2]; read-out: HCV Polymerase_1b IC50, recombinant truncated NS5B genotype 1b, poly rA/oligo dT, [3H]UTP SPA)	IC50 ([1]; Hepatitis C virus, Huh-7, 96 h)	IC50 [2]	CC50 at 72 h [3]	IC50 [4]
CC(C)N(C(=O)c1ccc(Cl)cc1Cl)c1cc(C#CC(C)(C)C)sc1C(=O)O [Compound 1, 3-[(2,4-Dichloro-benzoyl)-isopropyl-amino]-5-(3,3-dimethyl-but-1-ynyl)-thiophene-2-carboxylic acid]	0.1 to 1 µM	0.1 to 1 µM	–	–	–	–
CC(C)(C)C#Cc1cc(N(C(=O)c2ccc(Cl)cc2Cl)[C@H]2CC[C@H](O)CC2)c(C(=O)O)s1 [Compound 2, 3-[(2,4-Dichloro-benzoyl)-(trans-4-hydroxy-cyclohexyl)-amino]-5-(3,3-dimethyl-but-1-ynyl)-thiophene-2-carboxylic acid]	–	–	< 0.1 µM	0.1 to 1 µM	–	–
CC(C)(C)C#Cc1cc(N(C(=O)c2ccc(Cl)cc2)[C@H]2CC[C@H](O)CC2)c(C(=O)O)s1 [Compound 16, 3-[(4-Chloro-benzoyl)-(trans-4-hydroxy-cyclohexyl)-amino]-5-(3,3-dimethyl-but-1-ynyl)-thiophene-2-carboxylic acid]	–	–	–	0.1 to 1 µM	10 to 100 µM	–
CC(C)(C)C#Cc1cc(N(C(=O)c2ccc(Cl)cc2F)[C@H]2CC[C@H](O)CC2)c(C(=O)O)s1 [Compound 17, 3-[(4-Chloro-2-fluoro-benzoyl)-(trans-4-hydroxy-cyclohexyl)-amino]-5-(3,3-dimethyl-but-1-ynyl)-thiophene-2-carboxylic acid]	–	–	< 0.1 µM	1 to 10 µM	–	–
Cc1ccc(C(=O)N(c2cc(C#CC(C)(C)C)sc2C(=O)O)[C@H]2CC[C@H](O)CC2)c(C)c1 [Compound 18, 3-[(2,4-Dimethyl-benzoyl)-(trans-4-hydroxy-cyclohexyl)-amino]-5-(3,3-dimethyl-but-1-ynyl)-thiophene-2-carboxylic acid]	–	–	< 0.1 µM	0.1 to 1 µM	10 to 100 µM	–
Cc1ccc(C(=O)N(c2cc(C#CC(C)(C)C)sc2C(=O)O)[C@H]2CC[C@H](O)CC2)cc1 [Compound 19, 5-(3,3-Dimethyl-but-1-ynyl)-3-[(trans-4-hydroxy-cyclohexyl)-(4-methyl-benzoyl)-amino]-thiophene-2-carboxylic acid]	–	–	–	1 to 10 µM	–	–
CC(C)(C)C#Cc1cc(N(C(=O)c2ccc(C(F)(F)F)cc2)[C@H]2CC[C@H](O)CC2)c(C(=O)O)s1 [Compound 22]	–	–	–	1 to 10 µM	–	–
Cc1ccc(C(=O)N(c2cc(C#CC(C)(C)C)sc2C(=O)O)[C@H]2CC[C@H](O)CC2)cc1F [Compound 24, 5-(3,3-Dimethyl-but-1-ynyl)-3-[(3-fluoro-4-methyl-benzoyl)-(trans-4-hydroxy-cyclohexyl)-amino]-thiophene-2-carboxylic acid]	–	–	< 0.1 µM	1 to 10 µM	10 to 100 µM	–
CC(C)(C)C#Cc1cc(N(C(=O)c2ccc(Cl)cc2Cl)C2CCOCC2)c(C(=O)O)s1 [Compound 26, 3-[(2,4-Dichloro-benzoyl)-(tetrahydro-pyran-4-yl)-amino]-5-(3,3-dimethyl-but-1-ynyl)-thiophene-2-carboxylic acid]	–	–	< 0.1 µM	1 to 10 µM	10 to 100 µM	–
COCCN(C(=O)c1ccc(Cl)cc1Cl)c1cc(C#CC(C)(C)C)sc1C(=O)O [Compound 44, 3-[(2,4-Dichloro-benzoyl)-(2-methoxy-ethyl)-amino]-5-(3,3-dimethyl-but-1-ynyl)-thiophene-2-carboxylic acid]	–	–	< 0.1 µM	0.1 to 1 µM	10 to 100 µM	0.1 to 1 µM
CC(C)(C)C#Cc1cc(N(C(=O)c2ccc(F)cc2)[C@H]2CC[C@H](O)CC2)c(C(=O)O)s1 [Compound 51, 5-(3,3-Dimethyl-but-1-ynyl)-3-[(4-fluoro-benzoyl)-(trans-4-hydroxy-cyclohexyl)-amino]-thiophene-2-carboxylic acid]	–	–	–	1 to 10 µM	> 100 µM	–
CC(C)(C)C#Cc1cc(N(C(=O)c2ccc(Cl)c(F)c2)[C@H]2CC[C@H](O)CC2)c(C(=O)O)s1 [Compound 52, 3-[(4-Chloro-3-fluoro-benzoyl)-(trans-4-hydroxy-cyclohexyl)-amino]-5-(3,3-dimethyl-but-1-ynyl)-thiophene-2-carboxylic acid]	–	–	–	1 to 10 µM	10 to 100 µM	–
Cc1ccc(C(=O)N(c2cc(C#CC(C)(C)C)sc2C(=O)O)[C@H]2CC[C@H](O)CC2)c(Cl)c1 [Compound 53, 3-[(2-Chloro-4-methyl-benzoyl)-(trans-4-hydroxy-cyclohexyl)-amino]-5-(3,3-dimethyl-but-1-ynyl)-thiophene-2-carboxylic acid]	–	–	–	1 to 10 µM	10 to 100 µM	–
Cc1ccc(C(=O)N(c2cc(C#CC(C)(C)C)sc2C(=O)O)[C@H]2CC[C@H](O)CC2)c(F)c1 [Compound 54, 5-(3,3-Dimethyl-but-1-ynyl)-3-[(2-fluoro-4-methyl-benzoyl)-(trans-4-hydroxy-cyclohexyl)-amino]-thiophene-2-carboxylic acid]	–	–	–	1 to 10 µM	–	–
CC(C)(C)C#Cc1cc(N(C(=O)c2ccccc2Cl)[C@H]2CC[C@H](O)CC2)c(C(=O)O)s1 [Compound 87, 3-[(2-Chloro-benzoyl)-(trans-4-hydroxy-cyclohexyl)-amino]-5-(3,3-dimethyl-but-1-ynyl)-thiophene-2-carboxylic acid]	–	–	–	1 to 10 µM	> 100 µM	–
Cc1ccccc1C(=O)N(c1cc(C#CC(C)(C)C)sc1C(=O)O)[C@H]1CC[C@H](O)CC1 [Compound 88, 5-(3,3-Dimethyl-but-1-ynyl)-3-[(trans-4-hydroxy-cyclohexyl)-(2-methyl-benzoyl)-amino]-thiophene-2-carboxylic acid]	–	–	–	1 to 10 µM	> 100 µM	–
Cc1ccc(C(=O)N(c2cc(C#CC(C)(C)C)sc2C(=O)O)[C@H]2CC[C@H](O)CC2)c(F)c1F [Compound 89, 3-[(2,3-Difluoro-4-methyl-benzoyl)-(trans-4-hydroxy-cyclohexyl)-amino]-5-(3,3-dimethyl-but-1-ynyl)-thiophene-2-carboxylic acid]	–	–	–	1 to 10 µM	10 to 100 µM	–
CC(C)N(C(=O)c1ccc(Cl)cc1Cl)c1cc(C#CC(C)(C)C)sc1C(=O)O [Compound 96, Sodium 3-[(2,4-dichloro-benzoyl)-isopropyl-amino]-5-(3,3-dimethyl-but-1-ynyl)-thiophene-2-carboxylate]	–	–	< 0.1 µM	0.1 to 1 µM	10 to 100 µM	–
CC(C)(C)C#Cc1cc(N(CCO)C(=O)c2ccc(Cl)cc2Cl)c(C(=O)O)s1 [Compound 97, 3-[(2,4-Dichloro-benzoyl)-(2-hydroxy-ethyl)-amino]-5-(3,3-dimethyl-but-1-ynyl)-thiophene-2-carboxylic acid]	–	–	0.1 to 1 µM	0.1 to 1 µM	10 to 100 µM	–
